In patent US7947668B2, “Aminoalkyl sterol compounds having an anti-tumoral and neuroprotective activity” (Institut National de la Sante et de la Recherche Medicale, priority 2002, dated 2011):

Experiments:
[1] = tested on: U937 cells expressing RCPG-HA; test: Overexpression of a membrane receptor in the U937 tumoral cell line; type: cell-based, human; details: 10 nM, 12 hours, 48 hours after transfection
Protocol: U937 cells were cultured in an “RPMI 1640” medium sold by the company “Gibco BRL”. A plasmid coding for an […] membrane receptor belonging to the superfamily of protein G-coupled receptors and containing an HA label is generated.
The U937 cells expressing the receptors are generated by transfection using the “lipofectamine” reagent according to the manufacturer's instructions.
48 hours after transfection, the transfected cells were treated with 10 nM of compound according to example 9 for 12 hours.
These cells were fixed in order to be examined by fluorescence microscopy.

A549 cells [2] = test: Induction of vacuole production in the A549 tumoral cell line; type: cell-based, human
Protocol: A549 cells were treated with 100 nM of compound according to example 9, for 12 hours.
The A549 cells were obtained from the American Tissue Culture Collection (ATCC); they were inoculated at a density of 50 000 cells per well into 12-well plates and were cultured in RPMI medium supplemented with 5% fetal calf serum. To perform the treatment with the compound according to the invention, the cells are incubated with said compound (or with a control product) for 48 hours. The cells are then observed by phase-contrast microscopy every four hours to monitor the formation of vacuoles, and are then fixed with 0.4% paraformaldehyde solution in phosphate-buffered saline (PBS) at pH 7.4.
To obtain photograph D indicated above, the process was performed as follows: after treating the cells, the culture medium is removed and the cells are washed with PBS at pH 7.4. The cells are incubated for 10 minutes with 1 μM solutions of monodansyl cadaverine (MDC). They are then rinsed thoroughly with PBS solution at 4° C. One drop of “Vectashield” solution (Vector Laboratories, CA) is added before mounting between microscope slide and cover slip: the cells are then observed rapidly under the microscope and photographed.
The A549 cells treated as indicated above with the compound according to example 9 were also examined by electron microscopy. To examine these A549 cells by electron microscopy, they are fixed using a solution of PBS containing 3% glutaraldehyde, taken up in resin (EPON) and finally cut into thin slices using an ultra-microtome. These slices are then placed on 200-mesh copper grilles and examined by electron microscopy. […] In this FIG. 11, the letters used have the following meanings: N=nucleus; C=cytoplasm; M=mitochondria; Vi=intracytoplasmic vesicles; Ve=extracellular vesicles; MLB=multilamellar body.

TS/A (H-2^d) cells = test: Cytotoxicity on TS/A mouse mammary adenocarcinoma cells in culture; type: cell-based
Protocol: The mouse tumoral line TS/A(H-2^d) is a cell line of a spontaneous mammary adenocarcinoma of syngenic mice of BALB/c mice. They are cultured in mycoplasm-free controlled RPMI 1640 medium supplemented with endotoxin-free controlled fetal calf serum (Girco-Brio, 2 mM of glutamine, 100 U/ml of penicillin, 50 μg/ml of streptomycin, essential amino acids and sodium pyruvate.
The cytotoxicity appears for doses of 50 μM.

[3] = tested on: TS/A tumors implanted onto BALB/c mice; test: Growth tests on tumors implanted onto BALB/c mice; type: in vivo; details: for tumor growth relative to the control mice: intradermal in the region of the tumor
Protocol: The tumors are implanted in the following manner: 1×10^6 TS/A cells are inoculated by intradermal injection into the right side of the abdomen of 5-6-week-old BALB/c mice (Janvier breeding station, Le Genest Saint Isle).
The test molecule is the one corresponding to example 9; it is injected on the third day intradermally in the region of the tumor; the result is shown in FIG. 7.
The same experiment as that described above was repeated, changing the area of injection of the molecule corresponding to example 9; the injection is performed on the third day after implantation of the tumor, intradermally into the controlateral position relative to said implantation. […] This illustrates the efficacy of the treatment for an administration of the test compound remote from the tumor. The results obtained are represented by the curves in FIG. 17.

A549 cells [4] = test: Actin and tubulin skeleton on treated A549 cells (fluorescence microscopy); type: cell-based, human
Protocol: A549 cells were treated with the compound of example 9 according to the protocol described in detail in example 55; they are inoculated onto glass slides placed at the bottom of six-well culture dishes (NUNC) at a density of 50 000 cells per well in a nutrient medium of “RPMI 1640” type sold by the company “Gibco BRL”, supplemented with 10% fetal calf serum. The cells are then fixed with 3% paraformaldehyde solution and are permeabilized with a detergent solution containing 0.1% “Triton-X-100” in PBS. The actin skeleton of the treated cells was observed by labeling the cells with phalloidin-FITC.
In this case, the A549 cells are labeled with an anti-γ-tubulin antibody and developed with an anti-IgG-FITC antibody.

[5] = tested on: C57BL/6 mouse spleen monocytes; test: Dendritogenesis on C57BL/6 mouse spleen monocytes; type: cell-based; details: dose of 1 nM, 36 hours after the start of action
Protocol: 1) On C57BL/6 Mouse Spleen Monocytes
5-week-old mice are sacrificed by cervical dislocation. They are then dissected. The spleens are removed under sterile conditions and then placed in a cold solution (4° C.) containing serum-free culture medium supplemented with antibiotics (streptomycin and penicillin). The spleens are ground in a sterile fume cupboard and then filtered through a 100 μm filter. The eluate is recovered and then centrifuged at 1000 rpm for 5 minutes at 4° C. The cell pellet is resuspended in phosphate-buffered saline (PBS) solution containing […], the purpose of which is to lyze the red blood cells. The suspension is centrifuged at 1000 rpm and the cells are then resuspended in PBS. The washing operation is performed twice. The final resuspension is performed in whole culture medium, and the cells are counted and distributed into six-well dishes at a density of 40 000 cells/ml. Four hours later, the adhering cells are washed vigorously with PBS in order to remove the cells that might remain attached to the adhering cells or to the culture dish.
The conversion was obtained with a dose of 1 nM, the photograph having been taken 36 hours after the start of action of the product. The test product is that of example 9. The appearance of cellular extensions is observed, which is one of the main characteristics of activated dendritic cells.

[6] = tested on: U-937 human myeloid leukemia cells; test: Dendritogenesis on U-937 human myeloid leukemia cells; type: cell-based; details: 1 nM
Source text: 2) On U-937 Human Myeloid Leukemia Cells

U937 cells = test: Induction of vacuole production in the U937 tumoral cell line; type: cell-based, human; details: 10 nM, 24 hours
Protocol: U937 cells were treated with 10 nM of the compound according to example 9 for 24 hours. The treatment methods are those described in detail in example 55.

CC(C)CCC[C@@H](C)[C@H]1CC[C@H]2[C@@H]3C[C@@H](NCCc4c[nH]cn4)[C@@]4(O)C[C@@H](O)CC[C@]4(C)[C@H]3CC[C@]12C [Example 9, cholestane-3β,5α-diol-6β-N-[2-ethylamino(1H-imidazol-4-yl)]]
expression of RCPG-HA membrane receptor (immunofluorescence) [1]: expression of a membrane receptor of RCPG type
induction of vacuole production in A549 cells (A549 cells [2]; 100 nM, 12 hours): massive production of cytoplasmic vacuoles
dose dependence of the vacuole effect (A549 cells [2]; A549 cells): dose-dependent
time after the treatment at which the vacuole effect appears (A549 cells [2]; A549 cells): six
time after the treatment at which the vacuole effect reaches a maximum (A549 cells [2]; A549 cells): 12 h
electron microscopy of treated A549 cells (A549 cells [2]; FIG. 11.2): numerous vacuoles and mitochondria are also observed in the cytoplasm
reversibility of the vacuole effect (A549 cells [2]; growth medium replaced with fresh medium): reversible
toxicity on TS/A cells (TS/A (H-2^d) cells; doses of 5 nM and 1 μM, irrespective of the incubation time): no toxicity is observed
dose at which cytotoxicity on TS/A appears (TS/A (H-2^d) cells; in vitro): 50 µM
tumor growth relative to the control mice ([3]; 8.5 ng/g of mouse, third day): slowing-down effect
tumor growth relative to the control mice ([3]; 1.7 μg/g of mouse, third day): no tumor is detectable
tumor growth relative to the control mice, administration remote from the tumor ([3]; 1.7 μg/g of mouse, intradermal, controlateral position, third day): slowing-down of the tumoral growth
peripheral lymphoid system, activation of the immune system ([3]; 1.7 μg/g, whether or not a tumor has been implanted): hyperplasia of the peripheral lymphoid system is observed
necrosis in the area of injection (anatomopathology) ([3]; intradermal injection): no trace of necrosis is observable
actin skeleton of treated A549 cells (phalloidin-FITC) (A549 cells [4]; FIG. 12 photograph 2): appearance of refringent vesicles, which are surrounded by actin
tubulin skeleton of treated A549 cells (anti-γ-tubulin antibody) (A549 cells [4]; FIG. 13 photograph 2): presence of intracytoplasmic vacuoles, which are not surrounded with γ-tubulin
morphological changes on the mouse monocytes, conversion into dendritic cells [5]: conversion resulting in dendritic cells
formation of rosettes (aggregate of entangled cells) ([6]; after treatment for 5 days): formation of a large number of rosettes
size of the dendrites ([6]; after treatment for 5 days): up to 100 μm
induction of differentiation of the U-937 cells into dendritic cells ([6]; treatment for 2 days, after 10 ng/ml PMA): appearance of dendritic cells
induction of vacuole production in U937 cells (electron microscopy) (U937 cells): numerous intracytoplasmic vacuoles have appeared
